Measured values reported in the NIST ThermoML archive (doi:10.1021/je300252d).
Numbers after ± are expanded uncertainties.

Assay: mn = molality of the nth substance listed, in mol/kg
Settings: 100 kPa, Liquid, Direct current cell with electrodes

F[B-](F)(F)F.[Na+] [sodium tetrafluoroborate] + CN(C)C=O
Settings	molar conductivity [S·m2/mol]
283.15 K, m1 = 0.0001924	0.006693 ± 7.6e-06
283.15 K, m1 = 0.0003952	0.0066184 ± 6.4e-06
283.15 K, m1 = 0.0006451	0.0065533 ± 5.2e-06
283.15 K, m1 = 0.0008265	0.0065141 ± 4.1e-06
283.15 K, m1 = 0.001295	0.006434 ± 3.5e-06
283.15 K, m1 = 0.002093	0.0063285 ± 2.9e-06
283.15 K, m1 = 0.00309	0.0062291 ± 2.6e-06
283.15 K, m1 = 0.004094	0.0061456 ± 2.3e-06
283.15 K, m1 = 0.005982	0.0060221 ± 2.1e-06
283.15 K, m1 = 0.007983	0.0059166 ± 2e-06
283.15 K, m1 = 0.009964	0.005832 ± 1.9e-06
283.15 K, m1 = 0.01199	0.0057567 ± 1.8e-06
288.15 K, m1 = 0.0001674	0.007209 ± 8e-06
288.15 K, m1 = 0.000442	0.007102 ± 7.2e-06
288.15 K, m1 = 0.000627	0.0070513 ± 5.5e-06
288.15 K, m1 = 0.0007814	0.0070146 ± 4.4e-06
288.15 K, m1 = 0.001324	0.0069135 ± 3.7e-06
288.15 K, m1 = 0.002128	0.0067991 ± 3.1e-06
288.15 K, m1 = 0.003087	0.0066947 ± 2.7e-06
288.15 K, m1 = 0.00408	0.0066044 ± 2.4e-06
288.15 K, m1 = 0.006001	0.0064671 ± 2.2e-06
288.15 K, m1 = 0.007983	0.0063522 ± 2e-06
288.15 K, m1 = 0.009981	0.0062566 ± 1.9e-06
288.15 K, m1 = 0.01195	0.0061747 ± 1.9e-06
293.15 K, m1 = 0.0002336	0.007686 ± 8.6e-06
293.15 K, m1 = 0.0004583	0.0076005 ± 7.2e-06
293.15 K, m1 = 0.0006194	0.0075538 ± 5.7e-06
293.15 K, m1 = 0.0008218	0.0075029 ± 4.7e-06
293.15 K, m1 = 0.001262	0.0074142 ± 4e-06
293.15 K, m1 = 0.001996	0.0072971 ± 3.3e-06
293.15 K, m1 = 0.003085	0.0071656 ± 2.9e-06
293.15 K, m1 = 0.004073	0.0070679 ± 2.5e-06
293.15 K, m1 = 0.005971	0.0069203 ± 2.3e-06
293.15 K, m1 = 0.007974	0.0067931 ± 2.1e-06
293.15 K, m1 = 0.009986	0.0066867 ± 2e-06
293.15 K, m1 = 0.01198	0.0065964 ± 1.9e-06
298.15 K, m1 = 0.0001864	0.008228 ± 9.9e-06
298.15 K, m1 = 0.0003604	0.008147 ± 8.1e-06
298.15 K, m1 = 0.0005971	0.0080676 ± 6.4e-06
298.15 K, m1 = 0.000833	0.0080036 ± 5e-06
298.15 K, m1 = 0.001297	0.0079038 ± 4.1e-06
298.15 K, m1 = 0.002158	0.0077599 ± 3.5e-06
298.15 K, m1 = 0.00307	0.0076432 ± 3e-06
298.15 K, m1 = 0.004131	0.0075305 ± 2.6e-06
298.15 K, m1 = 0.005971	0.0073766 ± 2.4e-06
298.15 K, m1 = 0.007994	0.0072373 ± 2.2e-06
298.15 K, m1 = 0.009949	0.0071242 ± 2.1e-06
298.15 K, m1 = 0.01197	0.0070255 ± 2e-06
303.15 K, m1 = 0.0001663	0.008767 ± 1e-05
303.15 K, m1 = 0.0003918	0.008654 ± 8.9e-06
303.15 K, m1 = 0.0005861	0.0085855 ± 6.9e-06
303.15 K, m1 = 0.0007746	0.008529 ± 5.4e-06
303.15 K, m1 = 0.001279	0.0084093 ± 4.5e-06
303.15 K, m1 = 0.002088	0.0082612 ± 3.7e-06
303.15 K, m1 = 0.003044	0.0081277 ± 3.2e-06
303.15 K, m1 = 0.004105	0.0080061 ± 2.7e-06
303.15 K, m1 = 0.005964	0.0078384 ± 2.5e-06
303.15 K, m1 = 0.007948	0.0076906 ± 2.3e-06
303.15 K, m1 = 0.01001	0.0075615 ± 2.1e-06
303.15 K, m1 = 0.01198	0.0074596 ± 2e-06
308.15 K, m1 = 0.0001761	0.009295 ± 1.2e-05
308.15 K, m1 = 0.0003871	0.009183 ± 9.6e-06
308.15 K, m1 = 0.0005655	0.0091142 ± 7.2e-06
308.15 K, m1 = 0.0008095	0.0090359 ± 5.8e-06
308.15 K, m1 = 0.001266	0.0089201 ± 4.8e-06
308.15 K, m1 = 0.002043	0.0087655 ± 4e-06
308.15 K, m1 = 0.003019	0.0086178 ± 3.4e-06
308.15 K, m1 = 0.004064	0.0084888 ± 2.8e-06
308.15 K, m1 = 0.005984	0.0083031 ± 2.6e-06
308.15 K, m1 = 0.007986	0.0081431 ± 2.3e-06
308.15 K, m1 = 0.01001	0.0080069 ± 2.2e-06
308.15 K, m1 = 0.01196	0.0079009 ± 2.1e-06
313.15 K, m1 = 0.0001113	0.009888 ± 1.2e-05
313.15 K, m1 = 0.0003812	0.00972 ± 1.1e-05
313.15 K, m1 = 0.0006135	0.0096252 ± 7.9e-06
313.15 K, m1 = 0.000783	0.0095672 ± 6.1e-06
313.15 K, m1 = 0.001297	0.0094265 ± 5e-06
313.15 K, m1 = 0.002162	0.0092463 ± 4.2e-06
313.15 K, m1 = 0.003051	0.0091053 ± 3.5e-06
313.15 K, m1 = 0.004099	0.0089684 ± 2.9e-06
313.15 K, m1 = 0.005996	0.0087733 ± 2.7e-06
313.15 K, m1 = 0.008013	0.0086011 ± 2.4e-06
313.15 K, m1 = 0.01004	0.0084556 ± 2.2e-06
313.15 K, m1 = 0.01199	0.0083454 ± 2.1e-06
318.15 K, m1 = 0.0001596	0.0104 ± 1.2e-05
318.15 K, m1 = 0.0004215	0.01024 ± 1.1e-05
318.15 K, m1 = 0.0005697	0.010177 ± 7.9e-06
318.15 K, m1 = 0.0008753	0.010067 ± 6.6e-06
318.15 K, m1 = 0.001339	0.009935 ± 5.4e-06
318.15 K, m1 = 0.002012	0.0097823 ± 4.4e-06
318.15 K, m1 = 0.003095	0.009596 ± 3.7e-06
318.15 K, m1 = 0.004095	0.0094578 ± 3.1e-06
318.15 K, m1 = 0.005994	0.0092497 ± 2.8e-06
318.15 K, m1 = 0.008014	0.0090658 ± 2.5e-06
318.15 K, m1 = 0.009953	0.0089174 ± 2.3e-06
318.15 K, m1 = 0.01195	0.0087989 ± 2.2e-06
